This passage reports Activity and EC50 results from ChEMBL document CHEMBL1154043, “Synthesis and structure-activity relationship of a novel series of heterocyclic sulfonamide gamma-secretase inhibitors” (Bioorg Med Chem, 2009).

A short description of assay [1]: Inhibition of gamma-secretase assessed as effect on APP level after 24 hrs by double sandwich ELISA.
A further assay concerns CHO. Description: Inhibition of gamma-secretase-mediated cleavage of human APP expressed in CHO cells assessed as reduction in amyloid beta42 production after 24 hrs by double sandwich ELISA. Type of assay: cell-based. For orientation: In an ELISA, binding on a coated surface is turned into a signal by an enzyme label.
A short description of assay [2]: Inhibition of gamma-secretase-mediated cleavage of human APP expressed in CHO cells assessed as reduction in amyloid beta40 production after 24 hrs by double sandwich ELISA. Type of assay: cell-based.
The nature of assay [3]: Inhibition of gamma-secretase assessed as increase in beta-C-terminal fragment level after 24 hrs by double sandwich ELISA.

Activity calls are given as the source filed them. No cut-off for these calls is given here.

Consider `CCC(CC)C(NS(=O)(=O)c1ccc(Cl)cc1)c1ccnn1Cc1ccc(OC)cc1` (centres undefined), for which the outcome (in assay [1]; in the assay with CHO; in assay [3]) was Active. For the same compound, the concentration for a half-maximal effect (EC50) (usually the concentration that produces a half-maximal response) in assay [2] came out at 1980 nM.
`COc1ccc(Cn2nccc2C(C)NS(=O)(=O)c2ccc(Cl)s2)cc1` (centres undefined): the result (in assay [1]; with CHO; in assay [3]) was Active. The EC50 in assay [2] turned out to be 1200 nM.
As to `CCC(CC)[C@@H](NS(=O)(=O)c1ccc(Cl)s1)c1ccnn1Cc1ccc(OC)cc1`, the result (in assay [1]; in the assay with CHO; in assay [3]) was Active. Also, in assay [2], the EC50 is above 15000 nM.
For `CC(C)[C@H](NS(=O)(=O)c1ccc(Cl)s1)c1ccnn1-c1ccc(F)cc1`, the outcome (in assay [1]; in the assay on CHO; in assay [3]) was Active. For the same compound, in assay [2], the half-maximal effective concentration (EC50) was 1010 nM.
Turning to `CCC(CC)C(NS(=O)(=O)c1ccc(Cl)cc1)c1ccnn1-c1ccccc1` (centres undefined), the outcome (in assay [1]; in the assay on CHO; in assay [3]) was Active. The EC50 in assay [2] stood at 23000 nM.
Take `CCC(CC)C(NS(=O)(=O)c1ccc(Cl)s1)c1ccn[nH]1` (centres undefined): the outcome (in assay [1]; in the assay with CHO; in assay [3]) was Active. The concentration giving a half-maximal response (EC50) in assay [2] is 19500 nM.
As for `CCC(CC)C(NS(=O)(=O)c1ccc(Cl)s1)c1ncnn1Cc1ccc(OC(F)(F)F)cc1` (centres undefined), the result (in assay [1]; in the assay with CHO; in assay [3]) was Active. In addition, the EC50 in assay [2] stood at 990 nM.
As for `CCC(CC)C(NS(=O)(=O)c1ccc(Cl)s1)c1ccnn1Cc1ccc(OC)cc1` (centres undefined), the result (in assay [1]; with CHO; in assay [3]) was Active. In assay [2], the EC50 is 130 nM.
On to `Cc1ccc(Cn2ncnc2C(NS(=O)(=O)c2ccc(Cl)s2)C(C)C)cc1` (centres undefined), for which the result (in assay [1]; in the assay on CHO; in assay [3]) was Active. Moreover, the half-maximal effective concentration (EC50) in assay [2] stood at 2890 nM.
Regarding `Cc1ccc(-n2nccc2C(NS(=O)(=O)c2ccc(Cl)s2)C(C)C)cc1` (centres undefined), the result (in assay [1]; in the assay with CHO; in assay [3]) was Active. Further, in assay [2], the EC50 was 420 nM.
Regarding `CCC(CC)C(NS(=O)(=O)c1ccc(Cl)s1)c1ccnn1-c1ccc(C(F)(F)F)cc1` (centres undefined), the outcome (in assay [1]; in the assay with CHO; in assay [3]) was Active. The EC50 in assay [2] came to 2190 nM.
As for `CCC(CC)C(NS(=O)(=O)c1cc(Cl)c(Cl)s1)c1ccnn1-c1ccccc1` (centres undefined), the result (in assay [1]; in the assay on CHO; in assay [3]) was Active. Also, the concentration giving a half-maximal response (EC50) in assay [2] turned out to be 13400 nM.
On to `CCC(CC)C(NS(=O)(=O)c1ccc(Br)s1)c1ccnn1-c1ccccc1` (centres undefined), for which the outcome (in assay [1]; in the assay with CHO; in assay [3]) was Active. Besides, in assay [2], the EC50 turned out to be 1530 nM.
For `CCC(CC)C(NS(=O)(=O)c1ccc(Cl)s1)c1ccnn1-c1ccc(O)cc1` (centres undefined), the result (in assay [1]; with CHO; in assay [3]) was Active. Moreover, the EC50 in assay [2] is 630 nM.
For the compound `CCC(CC)[C@@H](NS(=O)(=O)c1ccc(Cl)s1)c1ccnn1Cc1ccc(O)cc1`, the outcome (in assay [1]; in the assay on CHO; in assay [3]) was Active. Moreover, the EC50 in assay [2] is 8500 nM.
Regarding `CCCCn1nccc1C(NS(=O)(=O)c1ccc(Cl)s1)C(CC)CC` (centres undefined), the outcome (in assay [1]; with CHO; in assay [3]) was Active. In addition, in assay [2], the EC50 worked out at 1000 nM.
